Data taken from ChEMBL document CHEMBL1127977, “Benzolactam growth hormone secretagogues: Carboxamides as replacements for the 2-tetrazole moiety of L-692,429” (1994).

Species on record: Rattus norvegicus
Assay: Tested in vitro for growth hormone release in rat pituitary cells
Assay type: functional
Conditions: Pituitary gland cell, read-out: ED50 (the source's name)

| Compound | EC50 [nM] |
| --- | --- |
| CCCCCNC(=O)c1ccccc1-c1ccc(CN2C(=O)[C@H](NC(=O)CC(C)(C)N)CCc3ccccc32)cc1 | > 1000 |
| CC(C)(N)CC(=O)N[C@@H]1CCc2ccccc2N(Cc2ccc(-c3ccccc3C(N)=O)cc2)C1=O | 80 |
| C[C@@H](O)CNC(C)(C)CC(=O)N[C@@H]1CCc2ccccc2N(Cc2ccc(-c3ccccc3C(N)=O)cc2)C1=O | 4 |
| COc1ccc(CNC(=O)c2ccccc2-c2ccc(CN3C(=O)[C@H](NC(=O)CC(C)(C)N)CCc4ccccc43)cc2)cc1 | 2000 |
| CCNC(=O)c1ccccc1-c1ccc(CN2C(=O)[C@H](NC(=O)CC(C)(C)N)CCc3ccccc32)cc1 | 90 |
| CCN(CC)C(=O)c1ccccc1-c1ccc(CN2C(=O)[C@H](NC(=O)CC(C)(C)N)CCc3ccccc32)cc1 | 2000 |
| C[C@@H](O)CNC(C)(C)CC(=O)N[C@@H]1CCc2ccccc2N(Cc2ccc(-c3ccccc3-c3nn[nH]n3)cc2)C1=O [L-692585] | 3 |
| CC(C)(CC(=O)N[C@@H]1CCc2ccccc2N(Cc2ccc(-c3ccccc3C(N)=O)cc2)C1=O)NC[C@H](O)CO | 3 |
| CC(C)(N)CC(=O)N[C@@H]1CCc2ccccc2N(Cc2ccc(-c3ccccc3C(=O)NCCO)cc2)C1=O | 3000 |
| CC(C)(N)CC(=O)N[C@@H]1CCc2ccccc2N(Cc2ccc(-c3ccccc3C(=O)NCCCCO)cc2)C1=O | 10 |
| CC(C)(N)CC(=O)N[C@@H]1CCc2ccccc2N(Cc2ccc(-c3ccccc3C(=O)NCc3ccccc3)cc2)C1=O | 900 |
| CC(C)(N)CC(=O)N[C@@H]1CCc2ccccc2N(Cc2ccc(-c3ccccc3C(=O)NCCCCCO)cc2)C1=O | 10 |
| CC(C)(N)CC(=O)N[C@@H]1CCc2ccccc2N(Cc2ccc(-c3ccccc3C(=O)NCCCO)cc2)C1=O | 400 |
| CC(C)(N)CC(=O)N[C@@H]1CCc2ccccc2N(Cc2ccc(-c3ccccc3-c3nn[nH]n3)cc2)C1=O | 60 |
| CC(C)(CC(=O)N[C@@H]1CCc2ccccc2N(Cc2ccc(-c3ccccc3-c3nn[nH]n3)cc2)C1=O)NC[C@H](O)CO | 10 |
| CC(C)(N)CC(=O)N[C@@H]1CCc2ccccc2N(Cc2ccc(-c3ccccc3C(=O)NCc3ccc(O)cc3)cc2)C1=O | 300 |
